Assay results as given in ChEMBL document CHEMBL5053527, “Design, synthesis, and pharmacological profiling of cannabinoid 1 receptor allosteric modulators: Preclinical efficacy of C2-group GAT211 congeners for reducing intraocular pressure” (Bioorg Med Chem, 2021).
In brackets after ≈: the same amount, converted by molar mass. Activity calls are given as the source filed them. The calls are words filed in the database; no cut-off is given here.

Experiments:
[1] = target: T1, Cannabinoid receptor 1 (Homo sapiens, UniProt P21554); test: Positive allosteric modulation of human CB1 receptor expressed in CHO-K1 cells assessed as inhibition of forskolin-induced cAMP production incubated for 30 mins in presence of forskolin by HitHunter chemiluminescence based assay; assay type: functional, cell-based
T1 sequence (P21554 whole entry): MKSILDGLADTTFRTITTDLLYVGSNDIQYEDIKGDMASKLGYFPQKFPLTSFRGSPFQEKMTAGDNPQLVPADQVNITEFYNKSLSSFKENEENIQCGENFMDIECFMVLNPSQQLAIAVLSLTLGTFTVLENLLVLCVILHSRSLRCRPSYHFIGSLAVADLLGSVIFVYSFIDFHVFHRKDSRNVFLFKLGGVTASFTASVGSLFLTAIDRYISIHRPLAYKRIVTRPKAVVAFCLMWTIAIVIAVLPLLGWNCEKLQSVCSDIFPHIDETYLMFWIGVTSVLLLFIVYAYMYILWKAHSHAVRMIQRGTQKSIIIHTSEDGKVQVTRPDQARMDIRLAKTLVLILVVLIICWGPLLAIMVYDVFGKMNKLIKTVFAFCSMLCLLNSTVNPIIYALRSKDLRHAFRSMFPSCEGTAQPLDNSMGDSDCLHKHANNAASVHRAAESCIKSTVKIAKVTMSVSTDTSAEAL

[2] = target: T1, Cannabinoid receptor 1; test: Positive allosteric modulation of human CB1 receptor expressed in CHO-K1 cells assessed as beta-arrestin 2 recruitment incubated for 90 mins by PathHunter chemiluminescence based assay; assay type: cell-based
[3] = target: T1, Cannabinoid receptor 1; test: Positive allosteric modulation of human CB1 receptor expressed in CHO-K1 cells assessed as inhibition of forskolin-induced cAMP production by measuring maximum efficacy incubated for 30 mins in presence of forskolin by HitHunter chemiluminescence based assay relative to control; assay type: functional, cell-based
[4] = target: T1, Cannabinoid receptor 1; test: Positive allosteric modulation of human CB1 receptor expressed in CHO-K1 cells assessed as beta-arrestin 2 […] by measuring maximum efficacy incubated for 90 mins by PathHunter chemiluminescence based assay relative to control; assay type: cell-based
[5] = target: Cannabinoid receptor 1 (Mus musculus) (UniProt P47746); test: Positive allosteric modulation of CB1 receptor in MF1 mouse vas deferens assessed as inhibition of AEA-induced electrically evoked vas deferens contraction by measuring maximum efficacy incubated for 13 mins followed by electrical stimulation for 2 mins (Rvb= […]+/- […]% ); assay type: tissue-based; conditions: filed as positive allosteric modulator
Chain of Cannabinoid receptor 1 (Mus musculus) (P47746 whole entry): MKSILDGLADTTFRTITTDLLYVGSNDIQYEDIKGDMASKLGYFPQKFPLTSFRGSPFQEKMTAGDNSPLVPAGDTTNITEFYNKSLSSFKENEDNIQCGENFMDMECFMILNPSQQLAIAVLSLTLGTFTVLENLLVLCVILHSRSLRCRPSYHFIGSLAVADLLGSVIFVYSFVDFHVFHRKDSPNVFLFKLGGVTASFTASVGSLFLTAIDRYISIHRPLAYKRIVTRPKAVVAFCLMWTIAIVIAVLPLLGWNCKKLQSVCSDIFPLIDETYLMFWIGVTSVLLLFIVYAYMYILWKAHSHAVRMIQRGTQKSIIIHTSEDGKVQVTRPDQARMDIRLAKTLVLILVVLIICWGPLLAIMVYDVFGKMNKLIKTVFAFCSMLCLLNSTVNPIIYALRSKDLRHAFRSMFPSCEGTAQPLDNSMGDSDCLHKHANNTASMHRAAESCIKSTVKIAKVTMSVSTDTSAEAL

[6] = in vitro; conditions: human, liver microsomes
[7] = target: T1, Cannabinoid receptor 1; test: Displacement of [3H]CP55940 from human CB1 receptor expressed in CHO-K1 cell membranes incubated for 60 mins by liquid scintillation spectrometry analysis; design: species or system Cell membrane
[8] = target: T1, Cannabinoid receptor 1; test: Potency index, ratio of GAT211 EC50 to test compound EC50 for positive allosteric modulation of human CB1 receptor expressed in CHO-K1 cells assessed as inhibition of forskolin-induced cAMP production incubated for 30 mins in presence of CP55940 by HitHunter chemiluminescence based assay; assay type: functional, cell-based
[9] = in vitro; conditions: rat, liver microsomes
[10] = test system: Mus musculus; test: Antiglaucoma activity in normotensive C57BL/6 mouse model assessed as reduction in intraocular pressure at 5 mM administered topically measured after 1 hr; assay type: functional
[11] = in vitro; conditions: rat, liver microsomes; remark: listed apart in the source
[12] = target: Cannabinoid receptor 1 (Mus musculus) (UniProt P47746); test: Positive allosteric modulation of CB1 receptor in C57BL/6 mouse hippocampal neurons assessed as decrease in inhibition of DSE recovery rate at 1 uM and holding potential at 0 mV for 10 secs followed by DSE stimulation; assay type: tissue-based; conditions: Neuron, filed as positive allosteric modulator, time 10.0 sec
[13] = target: T1, Cannabinoid receptor 1; test: Agonist activity at human CB1 receptor expressed in CHO cell membranes assessed as increase in [35S]GTPgammaS binding by measuring maximum efficacy incubated for 30 mins in presence of CP55940 by liquid scintillation spectrometry analysis relative to control; assay type: functional; conditions: CHO-K1, Cell membrane, filed as agonist
[14] = target: T1, Cannabinoid receptor 1; test: Agonist activity at human CB1 receptor expressed in CHO cell membranes assessed as increase in [35S]GTPgammaS binding incubated for 30 mins by liquid scintillation spectrometry analysis; assay type: functional, CHO-K1, Cell membrane
[15] = physchem; conditions: PBS buffer, pH 7.4
[16] = target: T1, Cannabinoid receptor 1; test: Agonist activity at human CB1 receptor expressed in CHO cell membranes assessed as increase in [35S]GTPgammaS binding by measuring maximum efficacy incubated for 30 mins by liquid scintillation spectrometry analysis relative to control; assay type: functional; conditions: CHO-K1, Cell membrane, filed as agonist
[17] = target: Cannabinoid receptor 1 (Mus musculus, UniProt P47746); test: Positive allosteric modulation of CB1 receptor in MF1 mouse vas deferens assessed as inhibition of AEA-induced electrically evoked vas deferens contraction incubated for 13 mins followed by electrical stimulation for 2 mins (Rvb= 460 nM); assay type: tissue-based
Chain of Cannabinoid receptor 1 (Mus musculus, UniProt P47746) (P47746 whole entry): as above

[18] = in vitro; conditions: human, liver microsomes; remark: listed apart in the source
[19] = target: Cannabinoid receptor 1 (Mus musculus) (UniProt P47746); test: Agonist activity at CB1 receptor in C57BL/6 mouse hippocampal neurons assessed as inhibition of excitatory postsynaptic current at 1 uM at -70 mV holding membrane potential by whole cell patch clamp assay; assay type: functional, tissue-based; conditions: Neuron, filed as agonist
[20] = target: T1, Cannabinoid receptor 1; test: Displacement of [3H]CP55940 from human CB1 receptor expressed in CHO-K1 cell membrane assessed as maximum efficacy incubated for 60 mins by liquid scintillation spectrometry analysis relative to control; assay type: cell membranes
[21] = filed as positive allosteric modulator

SMILES	EC50 [1]	EC50 [2]	Emax [3, 21]	Emax [4]	further results
O=[N+]([O-])CC(c1ccccc1)c1c(-c2ccco2)[nH]c2ccccc12 (stereo unspecified)	130 nM	2100 nM	140%	11%	–
O=[N+]([O-])CC(c1ccccc1)c1c(-c2ccsc2)[nH]c2ccccc12 (stereo unspecified)	87 nM	320 nM	98%	–	Emax [5]: 62%; microsomal CLint at 0.25 h, 1 µM [6]: 111 µL/min/mg; Ki [7]: 43 nM; Ratio EC50 [8]: 3; microsomal CLint at 0.25 h, 1 µM [9]: 489 µL/min/mg; Activity [10]: 3.2 mmHg; half-life at 0.25 h, 1 µM [11]: 4.72 min; Activity [12]: Active; Emax [13]: 46%; EC50 [14]: 130 nM; solubility kinetic at 2 h, 200 µM [15]: 1.56 µM (≈ 0.544 µg/mL); Emax [16]: 49%; EC50 [17]: 30 nM; half-life at 0.25 h, 1 µM [18]: 20.8 min; inhibition [19]: Active; Emax [4, 21]: 46%; Emax [20, 21]: 100%
O=[N+]([O-])CC(c1ccccc1)c1c(-c2cn[nH]c2)[nH]c2ccccc12 (stereo unspecified)	> 10000 nM	> 10000 nM	110%	3.5%	–
O=[N+]([O-])CC(c1ccccc1)c1c(-c2cc[nH]c2)[nH]c2ccccc12 (stereo unspecified)	> 10000 nM	> 10000 nM	52%	-1.5%	–
CC(C)(C)OC(=O)n1c(-c2[nH]c3ccccc3c2C(C[N+](=O)[O-])c2ccccc2)cc2ccccc21 (stereo unspecified)	> 10000 nM	> 10000 nM	–	0%	Emax [3]: 0%
O=[N+]([O-])CC(c1ccccc1)c1c(-c2cc3ccccc3o2)[nH]c2ccccc12 (stereo unspecified)	550 nM	> 10000 nM	96%	9.5%	–
O=[N+]([O-])CC(c1ccccc1)c1c(-c2c[nH]c3ccccc23)[nH]c2ccccc12 (stereo unspecified)	> 10000 nM	> 10000 nM	–	1.3%	Emax [3]: -71%
O=[N+]([O-])CC(c1ccccc1)c1c(-c2cc3ccccc3s2)[nH]c2ccccc12 (stereo unspecified)	150 nM	> 10000 nM	130%	13%	–
O=[N+]([O-])CC(c1ccccc1)c1c(-c2ccn[nH]2)[nH]c2ccccc12 (stereo in doubt; 15g) [listing 1 of 2 here]	> 10000 nM	> 10000 nM	–	–	–
O=[N+]([O-])CC(c1ccccc1)c1c(-c2ccn[nH]2)[nH]c2ccccc12 (stereo in doubt; 15h) [listing 1 of 2 here]	–	–	–	–	EC50 ([1]; cho-k1): > 10000 nM; EC50 ([2]; cho-k1): > 10000 nM
CCCCCCC(C)(C)c1ccc([C@@H]2C[C@H](O)CC[C@H]2CCCO)c(O)c1	–	–	–	–	Emax [16]: 42%; Emax [20]: -100%
CC(C)[Si](C(C)C)(C(C)C)n1ccc(-c2[nH]c3ccccc3c2C(C[N+](=O)[O-])c2ccccc2)c1 (stereo unspecified)	970 nM	> 10000 nM	120%	-4.5%	–
O=[N+]([O-])CC(c1ccccc1)c1c(-c2ccccc2)[nH]c2ccccc12 (stereo unspecified)	–	–	–	–	Emax [20, 21]: 57%
O=[N+]([O-])CC(c1ccccc1)c1c(-c2ccc[nH]2)[nH]c2ccccc12 (stereo unspecified)	220 nM	> 10000 nM	110%	25%	–
O=[N+]([O-])CC(c1ccccc1)c1c(-c2ccn[nH]2)[nH]c2ccccc12 (stereo in doubt; 15g) [listing 2 of 2 here]	–	–	–	0%	Emax [3]: 0%
O=[N+]([O-])CC(c1ccccc1)c1c(-c2cscn2)[nH]c2ccccc12 (stereo unspecified)	1200 nM	> 10000 nM	–	–	Emax [3]: 38%; Emax [4, 21]: 45%
O=[N+]([O-])CC(c1ccccc1)c1c(-c2cccs2)[nH]c2ccccc12 (stereo unspecified)	170 nM	110 nM	85%	–	microsomal CLint at 0.25 h, 1 µM [6]: 115 µL/min/mg; microsomal CLint at 0.25 h, 1 µM [9]: 595 µL/min/mg; half-life at 0.25 h, 1 µM [11]: 3.88 min; solubility kinetic at 2 h, 200 µM [15]: 1.56 µM (≈ 0.544 µg/mL); half-life at 0.25 h, 1 µM [18]: 20 min; Emax [4, 21]: 57%
O=[N+]([O-])CC(c1ccccc1)c1c(-c2cncs2)[nH]c2ccccc12 (stereo unspecified)	1500 nM	> 10000 nM	100%	5.1%	–
O=[N+]([O-])CC(c1ccccc1)c1c(-c2nccs2)[nH]c2ccccc12 (stereo unspecified)	790 nM	> 10000 nM	72%	2.8%	–
O=[N+]([O-])CC(c1ccccc1)c1c(-c2cc3ccccc3[nH]2)[nH]c2ccccc12 (stereo unspecified)	> 10000 nM	> 10000 nM	110%	3.3%	–
O=[N+]([O-])CC(c1ccccc1)c1c(-c2ccn[nH]2)[nH]c2ccccc12 (stereo in doubt; 15h) [listing 2 of 2 here]	–	–	120%	0.76%	–
O=[N+]([O-])CC(c1ccccc1)c1c(-c2ccoc2)[nH]c2ccccc12 (stereo unspecified)	100 nM	> 1000 nM	120%	18%	–
